In the NIST ThermoML archive (doi:10.1021/je800894y):

Settings: Liquid; for viscosity: Vibrating wire viscometry; for mass density: vibrating-wire apparatus

CC(C)CCCC(C)CCCC(C)CCCCC(C)CCCC(C)CCCC(C)C (centres undefined) [2,6,10,15,19,23-hexamethyltetracosane]
Settings | mass density [kg/m3] | viscosity [mPa·s]
303.18 K, 1070 kPa | 802 | 22
303.18 K, 5300 kPa | 803.5 | 24.2
303.18 K, 5740 kPa | 804.4 | 24.4
303.18 K, 15580 kPa | 806.9 | 30.3
303.18 K, 25530 kPa | 813.9 | 36.9
303.18 K, 35790 kPa | 826.5 | 44.3
303.18 K, 45770 kPa | 825.1 | 54.6
303.18 K, 55770 kPa | 825.9 | 66.3
348.13 K, 5270 kPa | 776.9 | 5.59
348.13 K, 5290 kPa | 777 | 5.6
348.13 K, 25490 kPa | 790.6 | 7.79
348.13 K, 56280 kPa | 807.7 | 12.3
348.13 K, 85860 kPa | 821.2 | 18.4
348.13 K, 115830 kPa | 832.6 | 26.9
348.13 K, 145930 kPa | 844.3 | 38.7
348.13 K, 175120 kPa | 843.2 | 55.6
398.15 K, 5160 kPa | 746.3 | 2.17
398.15 K, 5230 kPa | 746.4 | 2.17
398.15 K, 25310 kPa | 763.3 | 2.89
398.15 K, 56100 kPa | 783.5 | 4.24
398.15 K, 85890 kPa | 799.5 | 5.88
398.15 K, 115450 kPa | 812.6 | 7.93
398.15 K, 145820 kPa | 824.7 | 10.6
398.15 K, 176100 kPa | 835.4 | 13.8
448.25 K, 5580 kPa | 716.3 | 1.17
448.25 K, 5730 kPa | 716.5 | 1.18
448.25 K, 25470 kPa | 736.8 | 1.54
448.25 K, 55510 kPa | 759.9 | 2.17
448.25 K, 85620 kPa | 778.7 | 2.89
448.25 K, 115510 kPa | 793.3 | 3.76
448.25 K, 145580 kPa | 806.4 | 4.78
448.25 K, 176050 kPa | 818.2 | 5.99
